# pKi: −log10 of the molar value. Where two headings read alike, the source gives them in different places.
# Legend:
# [1] = target: T1, DOR (δ opioid receptor) (Homo sapiens, UniProt P41143); experiment: DOR radioligand binding ([3H]-DADLE, HEK293 cell homogenates); settings: Percent inhibition at 10,000 nM; [3H]-DADLE
# T1 construct: expressed in transfected cells; host or cells: HEK293
# Description: (§1) Radioligand binding assays. Detailed protocols for the primary and secondary radioligand binding assays can be found in the National Institute of Mental Health's Psychoactive Drug Screening Program (NIMH PDSP) Assay Protocol Book (Roth, 2018). Briefly, primary and secondary radioligand binding assays are carried out in a final of volume of 125 μL per well in appropriate binding buffer. […] Total binding and nonspecific binding are determined in the absence and presence of 10 μM of appropriate reference compound (Naltrindole DOR, Salvinorin A KOR and DAMGO MOR). In brief, plates are usually incubated at room temperature and in the dark for 90 min. Reactions are stopped by vacuum filtration onto 0.3% polyethyleneimine (PEI) soaked 96-well filter mats using a 96-well Filtermate harvester, followed by three washes with cold PBS buffer. Scintillation cocktail is then melted onto the microwave-dried filters on a hot plate and radioactivity counted in a Microbeta counter. The data (n=6) were analyzed by nonlinear regression.
# (§2) Ligand affinities were determined for KOR (κ opioid receptor), DOR (δ opioid receptor), and MOR (μ opioid receptor) using radioligand binding assays at a screening concentration of 10,000 nM. For these assays, cell homogenates from HEK293 cells that overexpressed KOR, MOR, and DOR were used in combination with [^3H]-U69593, [^3H]-DAMGO, and [^3H]-DADLE, respectively Compounds that exceeded more than 50% radioligand displacement were investigated further in concentration-dependent experiments to determine Ki values. Gamma aminobutyric acid type A receptor (GABAAR) binding was determined with rat brain homogenate and ^3H-flunitrazepam. Flunitrazepam binds GABAAR subtypes that consists of two α and two β subunits and one γ or δ subunit. Strong affinities to α1-3,5,6β1-3γ1-y/δ GABAARS have been reported for flunitrazepam. The […] GABAAR subtype expression in the brain includes 43% α1β2γ2, 15% α2β3γ2+8% α2βγ1, 10% α3β3γ2, 6% α4βγ/δ, 4% α5β3γ2, and 4% α6β2γ2/δ. Therefore, compounds with high affinity toward the synaptic benzodiazepine-sensitive receptors (BZR) predominately bind α1-3β2-3γ1-2 GABAARs. Alternatively, compounds with weak BZR binding might be selective for α4-6βγ/δ GABAARs.
# (§3) Psychoactive Drug Screening Program. Detailed protocols for the primary and secondary radioligand binding assays can be found in the National Institute of Mental Health's Psychoactive Drug Screening Program (NIMH PDSP) Assay Protocol Book. Briefly, primary and secondary radioligand binding assays are carried out in a final of volume of 125 μL per well in appropriate binding buffer. The radioactive ligand concentration is close to the Kd. Total binding and nonspecific binding are determined in the absence and presence of 10 μM of appropriate reference compound, respectively. In brief, plates are usually incubated at room temperature and in the dark for 90 min. Reactions are stopped by vacuum filtration onto 0.3% polyethyleneimine (PEI) soaked 96-well filter mats using a 96-well Filtermate harvester, followed by three washes with cold PBS buffer. Scintillation cocktail is then melted onto the microwave-dried filters on a hot plate and radioactivity counted in a Microbeta counter. The data (n=6) were analyzed by nonlinear regression.
# [2] = target: T2, KOR (κ opioid receptor) (Homo sapiens, UniProt P41145); experiment: KOR radioligand binding ([3H]-U69593, HEK293 cell homogenates); settings: for inhibition at 10 µM: Percent inhibition at 10,000 nM
# T2 construct: expressed in transfected cells; host or cells: HEK293 (stably transfected)
# Description: as §1, §2, §3
# [3] = tested on: BZR (benzodiazepine site of GABAAR); experiment: GABAAR/BZR binding, rat brain homogenate with 3H-flunitrazepam; settings: rat brain homogenate, 3H-flunitrazepam; for BZR %: Percent inhibition at 10,000 nM
# Description: as §2, §3
# [4] = target: T3, MOR (μ opioid receptor) (Homo sapiens, UniProt P35372); experiment: MOR radioligand binding ([3H]-DAMGO, HEK293 cell homogenates); settings: Percent inhibition at 10,000 nM; [3H]-DAMGO
# T3 construct: expressed in transfected cells; host or cells: HEK293
# Description: as §1, §2, §3
# [5] = concentration-dependent, [3H]-U69593, read-out: KOR (Ki)
# T2 sequence (P41145 whole entry): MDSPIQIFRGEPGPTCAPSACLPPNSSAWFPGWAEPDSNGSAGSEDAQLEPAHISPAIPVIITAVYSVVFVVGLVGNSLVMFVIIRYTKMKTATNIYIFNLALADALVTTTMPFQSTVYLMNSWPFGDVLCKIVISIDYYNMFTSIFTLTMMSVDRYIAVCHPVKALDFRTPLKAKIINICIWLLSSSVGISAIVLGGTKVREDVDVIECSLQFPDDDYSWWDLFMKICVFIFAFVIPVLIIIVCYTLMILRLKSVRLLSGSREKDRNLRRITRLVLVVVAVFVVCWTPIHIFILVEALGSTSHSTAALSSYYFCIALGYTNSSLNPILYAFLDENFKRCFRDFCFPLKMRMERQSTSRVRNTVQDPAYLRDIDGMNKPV
# T3 sequence (P35372 whole entry, species assumed): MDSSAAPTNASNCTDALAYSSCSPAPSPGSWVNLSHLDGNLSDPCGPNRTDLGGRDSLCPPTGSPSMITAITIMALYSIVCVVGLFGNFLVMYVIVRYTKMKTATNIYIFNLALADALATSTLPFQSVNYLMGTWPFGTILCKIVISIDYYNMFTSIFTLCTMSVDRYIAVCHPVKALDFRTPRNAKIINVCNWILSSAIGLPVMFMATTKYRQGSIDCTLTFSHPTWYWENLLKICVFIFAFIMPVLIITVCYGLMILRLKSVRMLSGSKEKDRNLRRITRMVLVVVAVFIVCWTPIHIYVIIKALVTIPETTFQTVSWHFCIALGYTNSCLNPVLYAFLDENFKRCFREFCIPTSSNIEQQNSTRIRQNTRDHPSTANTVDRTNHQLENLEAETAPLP
# T1 sequence (P41143 whole entry): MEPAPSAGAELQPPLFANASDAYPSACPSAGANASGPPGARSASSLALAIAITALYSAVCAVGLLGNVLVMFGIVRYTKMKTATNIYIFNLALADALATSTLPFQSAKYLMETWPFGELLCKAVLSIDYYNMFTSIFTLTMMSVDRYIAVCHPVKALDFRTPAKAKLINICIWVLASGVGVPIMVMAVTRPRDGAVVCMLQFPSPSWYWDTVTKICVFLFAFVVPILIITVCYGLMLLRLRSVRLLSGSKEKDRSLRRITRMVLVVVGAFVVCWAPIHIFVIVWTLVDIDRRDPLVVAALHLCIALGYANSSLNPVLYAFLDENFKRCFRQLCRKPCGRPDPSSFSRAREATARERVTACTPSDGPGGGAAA
Structure (SMILES),inhibition at 10 µM [1],inhibition at 10 µM ([2]; [3H]-U69593),"pKi [2, 5]",BZR % [3],pKi [3],inhibition at 10 µM [4],pKi [2]
C#Cc1ccc2c(c1)C(c1ccccc1F)=N[C@@H](C)c1c(C(=O)NCC)ncn1-2 [GL-I-43],3%,95%,6.99,94%,7.36,22%,–
C#Cc1ccc2c(c1)C(c1ccccc1F)=N[C@@H](C)c1c(C(=O)OC(C)C)ncn1-2 [GL-I-31],8%,94%,7.19,97%,6.61,32%,–
C#Cc1ccc2c(c1)C(c1ccccc1F)=N[C@H](C)c1c(C(=O)OCC)ncn1-2 [SH-053-2′F-R-CH3],32%,89%,6.62,85%,6.42,28%,–
C#Cc1ccc2c(c1)C(c1ccccc1F)=N[C@H](C)c1c(C(=O)OC)ncn1-2 [MP-III-004],24%,76%,6.22,78%,6.35,0%,–
C#Cc1ccc2c(c1)C(c1ccccn1)=NCc1c(-c3cnco3)ncn1-2 [KRM-III-67],3%,48%,–,71%,6.84,30%,–
Fc1ccccc1C1=NCc2c(-c3cnco3)ncn2-c2ccc(Br)cc21 [SH-I-85],33%,91%,6.79,99%,7.96,16%,–
C#Cc1ccc2c(c1)C(c1ccccc1F)=N[C@H](C)c1c(C(=O)N3CCCC3)ncn1-2 [GL-II-76],0%,80%,6.43,43%,–,0%,–
C#Cc1ccc2c(c1)C(c1ccccc1F)=N[C@@H](C)c1c(C(=O)NC3CC3)ncn1-2 [GL-I-55],24%,93%,6.82,95%,7.70,17%,–
C#Cc1ccc2c(c1)C(c1ccccc1F)=N[C@@H](C)c1c(C(=O)N(C)C)ncn1-2 [GL-I-54],11%,78%,6.10,94%,7.05,18%,–
COC(=O)c1ncn2c1[C@@H](C)N=C(c1ccccc1F)c1cc(Br)ccc1-2 [MP-III-058],4%,84%,–,86%,6.54,0%,–
C#Cc1ccc2c(c1)C(c1ccccc1F)=N[C@H](C)c1c(C(=O)NC3CC3)ncn1-2 [GL-II-75],3%,81%,6.56,85%,7.03,0%,–
C#Cc1ccc2c(c1)C(c1ccccc1F)=N[C@@H](C)c1c(C(=O)NC(C)(C)C)ncn1-2 [GL-I-41],10%,97%,7.41,90%,6.85,40%,–
C#Cc1ccc2c(c1)C(c1ccccn1)=NCc1c(-c3nc(C)no3)ncn1-2 [MP-III-085],0%,40%,–,82%,6.45,0%,–
CCOC(=O)c1ncn2c1[C@H](C)N=C(c1ccccc1F)c1cc(Br)ccc1-2 [SH-I-048B],0%,95%,–,61%,7.02,0%,7.20
C#Cc1ccc2c(c1)C(c1ccccc1F)=N[C@@H](C)c1c(C(=O)O)ncn1-2 [SH-053-2′P-S-CH3 Acid],18%,20%,–,93%,7.54,0%,–
CCOC(=O)c1ncn2c1[C@H](C)N=C(c1ccccc1F)c1cc(C3CC3)ccc1-2 [GL-I-78],41%,96%,–,76%,6.45,32%,7.32
C#Cc1ccc2c(c1)C(c1ccccc1F)=N[C@H](C)c1c(C(=O)O)ncn1-2 [SH-053-2'F-R-CH3-Acid],0%,16%,–,93%,7.43,0%,–
C#Cc1ccc2c(c1)C(c1ccccc1F)=N[C@@H](C)c1c(C(=O)SCC)ncn1-2 [GL-I-77],4%,95%,6.90,92%,6.91,41%,–
C#Cc1ccc2c(c1)C(c1ccccn1)=NCc1c(C(=O)OC(C)C)ncn1-2 [MP-II-068],34%,85%,6.26,97%,7.38,0%,–
C#Cc1ccc2c(c1)C(c1ccccc1F)=N[C@@H](C)c1c(C(=O)OC3CC3)ncn1-2 [GL-I-38],16%,95%,7.17,96%,6.90,18%,–
C#Cc1ccc2c(c1)C(c1ccccc1F)=NCc1c(-c3ocnc3C)ncn1-2 [KRM-III-65],16%,64%,6.06,96%,7.35,0%,–
Brc1ccc2c(c1)C(c1ccccn1)=NCc1c(-c3cnco3)ncn1-2 [KRM-II-97],8%,62%,5.71,93%,6.85,18%,–

# From patent US20240279232A1, “USE OF SUBSTITUTED 5-(4-METHYL-6-PHENYL-4H-BENZO[F]IMIDAZO[1,5-A][1,4] DIAZEPIN-3-YL)-1,2,4-O[…] THE TREATMENT OF INFLAMMATORY CONDITIONS” (priority 2021, published 2024)
